Common to all, as to assay: growth of human tumour cells (NCI), 48 h
Experiment [1] deals with BT-549.
Experiment [2] has as its system CCRF-CEM.
Experiment [3] concerns HCT-15.
Experiment [4] has as its system HL-60.
For experiment [5], the system named is IGROV-1.
Experiment [6] concerns K562.
Experiment [7] has as its system LOX IMVI.
In experiment [8] the test system is MCF7.
Experiment [9] concerns MDA-N.
Experiment [10] deals with MOLT-4.
Experiment [11] concerns Malme-3M.
In experiment [12] the test system is NCI-H23.
Experiment [13] relates to NCI-H522.
Experiment [14] concerns OVCAR-4.
The subject of experiment [15] is OVCAR-5.
Experiment [16] has as its system SF-268.
In experiment [17] the test system is SN12C.
The test system of experiment [18] is SNB-19.
In experiment [19] the test system is SW-620.
For experiment [20], the system named is TK-10.

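In this assay, cells in 96-well plates receive the compound at five concentrations for 48 hours. Endpoints are linearly interpolated between the surrounding concentrations. Abbreviation: GI50, concentration required for 50% inhibition of growth.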 Activity calls are given as the source filed them. No stated cut-off is given here; in the data, active = GI50 up to about 1.1 µM and inactive = higher. A value given as a limit tells only on which side of the number the result lay.

Turning to `O=C1OC(c2ccc(O)c(-c3ccccc3)c2)(c2ccc(O)c(-c3ccccc3)c2)c2c(Cl)c(Cl)c(Cl)c(Cl)c21`, the GI50 in experiment [1] is > 100 µM (inactive); in experiment [2] it was > 100 µM (inactive); in experiment [3], above 100 µM; in experiment [4] it was 0.177 µM (active); in experiment [5] it was > 100 µM (inactive); in experiment [6], > 100 µM (inactive). Moreover, the GI50 in experiment [7], in [8], in [9], in experiment [10], in experiment [11] and in experiment [12] was > 100 µM (inactive) each time. The GI50 in experiment [13], in experiment [14], in [15], in [16], in [17] and in [18] was > 100 µM (inactive) each time. Further, the GI50 in experiment [19] and in [20] was > 100 µM (inactive) each time.
Consider `COc1ccc2c(C)cc(C)nc2n1`, for which the GI50 in experiment [1] is > 100 µM (inactive); in experiment [2], > 100 µM (inactive); in experiment [3] it was above 100 µM; in experiment [4], > 100 µM (inactive); in [5], > 100 µM (inactive); in experiment [6] it was > 100 µM (inactive). The GI50 in experiment [7], in experiment [8], in [9], in experiment [10], in experiment [11] and in experiment [12] was > 100 µM (inactive) in each case. The GI50 in [13], in [14], in experiment [15], in experiment [17], in [18] and in [19] was > 100 µM (inactive) in each case. Besides, in experiment [20], the GI50 is > 100 µM (inactive).
Regarding `COc1c2c(cc3c1OCO3)[C@]13C=C[C@H](OC)C[C@H]1N(C2)CC3O` (stereo partly drawn), the GI50 in [1] was > 100 µM (inactive); in [2], > 100 µM (inactive); in experiment [3], above 100 µM; in experiment [4], > 100 µM (inactive); in experiment [5], > 100 µM (inactive); in experiment [7], > 100 µM (inactive). Further, the GI50 in [8] was > 100 µM (inactive); in experiment [9], > 100 µM (inactive); in experiment [10], 99.1 µM (inactive); in [11] it was > 100 µM (inactive); in [12] it was > 100 µM (inactive); in experiment [13], > 100 µM (inactive). Moreover, the GI50 in [14], in [15], in experiment [16], in [17], in experiment [18] and in [19] was > 100 µM (inactive) in each case. The GI50 in [20] is > 100 µM (inactive).
As for `CCN(CC)c1ccc2c(c1)OC(=O)C(c1nnc(-c3ccc([N+](=O)[O-])cc3)o1)C2` (stereo not drawn), the GI50 in experiment [1] is > 100 µM (inactive); in experiment [2], 34.2 µM (inactive); in experiment [3], above 100 µM; in [4], 84.5 µM (inactive); in [5], > 100 µM (inactive); in experiment [6], 38 µM (inactive). The GI50 in experiment [7], in experiment [8], in experiment [9], in experiment [10], in experiment [11] and in experiment [12] was > 100 µM (inactive) in each case. In addition, the GI50 is > 100 µM (inactive) in [13]; > 100 µM (inactive) in experiment [14]; > 100 µM (inactive) in [15]; 90.4 µM (inactive) in [16]; > 100 µM (inactive) in experiment [18]; > 100 µM (inactive) in experiment [19]. Moreover, the GI50 in [20] is > 100 µM (inactive).
With `C=C(C)C(=O)OC1CC2(C)OC(=CC2=O)C(C)CC2OC(=O)C(=C)C12` (stereo not drawn), the GI50 in [1] was 6.25 µM (inactive); in [2], 0.839 µM (active); in experiment [3], 1.65 µM; in experiment [4] it was 0.461 µM (active); in [5] it was 8.85 µM (inactive); in experiment [6], 0.656 µM (active). For the same molecule, the GI50 in [7] was 2.94 µM (inactive); in experiment [8], 2.78 µM (inactive); in experiment [9], 3.01 µM (inactive); in experiment [10] it was 2.9 µM (inactive); in experiment [11], 3.44 µM (inactive); in experiment [12], 8.89 µM (inactive). Besides, the GI50 is 0.832 µM (active) in [13]; 3.99 µM (inactive) in [14]; 10.4 µM (inactive) in experiment [15]; 26.7 µM (inactive) in [16]; 5.85 µM (inactive) in [17]; 21.4 µM (inactive) in [18]. The results for the GI50 in experiment [19] and in [20] were 2.79 µM (inactive) and 7.41 µM (inactive), respectively.
As for `O=C(CN1CCN(Cc2ccccc2)CC1)N1CCCn2c1nc1ccccc1c2=O`, the GI50 in experiment [1] is > 100 µM (inactive); in experiment [2], > 100 µM (inactive); in experiment [3], above 100 µM; in [4] it was > 100 µM (inactive); in experiment [5], > 100 µM (inactive); in [6], > 100 µM (inactive). The GI50 in experiment [7], in experiment [8], in experiment [9], in [10], in experiment [11] and in experiment [12] was > 100 µM (inactive) in each case. Moreover, the GI50 in [13], in [14], in experiment [15], in experiment [16], in [17] and in experiment [18] was > 100 µM (inactive) throughout. Besides, the GI50 in [19] and in experiment [20] was > 100 µM (inactive) in each case.
`CC(C)=C1C(=O)c2c(Cl)sc(Cl)c2C1=O`: the GI50 in experiment [1] was 22 µM (inactive); in experiment [2], 26.1 µM (inactive); in experiment [3] it was 20.7 µM; in experiment [4], 31.3 µM (inactive); in experiment [5], 21.9 µM (inactive); in [6] it was 37.6 µM (inactive). For the same molecule, the GI50 in experiment [7] is 18.2 µM (inactive); in experiment [8], 41.2 µM (inactive); in experiment [9], 22.6 µM (inactive); in experiment [10] it was 36.6 µM (inactive); in [11], 19 µM (inactive); in experiment [12], 17.8 µM (inactive). Further, the GI50 is 16.4 µM (inactive) in [13]; 14.5 µM (inactive) in experiment [14]; > 100 µM (inactive) in experiment [15]; 30.2 µM (inactive) in [16]; 20.7 µM (inactive) in [17]; 28.7 µM (inactive) in experiment [19]. Besides, the GI50 in experiment [20] is 32.5 µM (inactive).
For the molecule `C=C[C@@H]1C[C@]2(C(=O)OC)Cc3nc4ccccc4nc3CC(C(=O)OC)=C2O1`, the GI50 is 57.1 µM (inactive) in experiment [1]; 41.8 µM (inactive) in experiment [2]; 57.1 µM in [3]; 80.5 µM (inactive) in experiment [4]; 61.2 µM (inactive) in experiment [5]; 45.6 µM (inactive) in experiment [7]. Also, the GI50 is 40.6 µM (inactive) in experiment [8]; 46.8 µM (inactive) in experiment [9]; 42.5 µM (inactive) in [10]; > 100 µM (inactive) in experiment [11]; 69.8 µM (inactive) in experiment [12]; 64.6 µM (inactive) in [13]. Besides, the GI50 was > 100 µM (inactive) in [14]; > 100 µM (inactive) in [15]; > 100 µM (inactive) in experiment [16]; > 100 µM (inactive) in [17]; > 100 µM (inactive) in [18]; 58.5 µM (inactive) in experiment [19]. Further, the GI50 in experiment [20] was > 100 µM (inactive).
Turning to `CN(/N=C(\C(=O)O)c1ccccc1)C1=NCCCCN1`, the GI50 is > 100 µM (inactive) in experiment [1]; > 100 µM (inactive) in [2]; above 100 µM in experiment [3]; > 100 µM (inactive) in [4]; 94.6 µM (inactive) in experiment [5]; > 100 µM (inactive) in experiment [6]. Also, the GI50 in [7], in experiment [8], in [9], in experiment [10], in [11] and in experiment [12] was > 100 µM (inactive) throughout. Also, the GI50 in experiment [13], in experiment [14], in experiment [15], in [16], in experiment [17] and in [19] was > 100 µM (inactive) in each case. Besides, the GI50 in [20] is > 100 µM (inactive).
As to `C=CC[C@@]1([C@H](C=C)COCc2ccc(OC)cc2)CC[C@]2(C)OC(C)(C)[C@@H](c3ccccc3)N2C1=S`, the GI50 in experiment [1] was 40.7 µM (inactive); in [2], 46.5 µM (inactive); in experiment [3] it was 81.5 µM; in experiment [4], 22.4 µM (inactive); in [6], 27.4 µM (inactive); in experiment [7] it was 40.8 µM (inactive). Besides, the GI50 in experiment [8] was 31.1 µM (inactive); in experiment [9], 49.5 µM (inactive); in experiment [10] it was 52.4 µM (inactive); in [11], 37.6 µM (inactive); in experiment [12], 40.4 µM (inactive); in experiment [13], 20.9 µM (inactive). Also, the GI50 in experiment [14] is 40.7 µM (inactive); in experiment [15] it was 50 µM (inactive); in [16], 53.5 µM (inactive); in [17], 62.1 µM (inactive); in experiment [18], 35.2 µM (inactive); in [19], 53 µM (inactive). Besides, in experiment [20], the GI50 was 52.7 µM (inactive).

(Values after ChEMBL document CHEMBL1201862, “PubChem BioAssay data set” (2004).)
